Experiments:
Assay in all cases: relative viability vs DMSO control (72 h) (fraction); higher = more viable cells
SW684 = system: SW684
Outline: (§1)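 Sarcoma cell lines were seeded in 384-well plates at densities set to reach 80–90% confluence. After 24 h, 2.5 µl of serially diluted compound was added (source plates 10 mM to 0.0002 mM), and plates were held 72 h at 37 °C, 5% CO2, with 0.1% DMSO vehicle and a 5 µM positive control. Relative viability came from ATPLite readings as percent growth, averaged over up to triplicate wells. Data were rescaled so full viability equals 1 and none equals 0.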

A204 = system: A204
Outline: as §1

SK-ES-1 = system: SK-ES-1
Outline: as §1

G401 = system: G401
Outline: as §1

SK-LMS-1 = system: SK-LMS-1
Outline: as §1

HS729 = system: HS729
Outline: as §1

SW872 = system: SW872
Outline: as §1

MES-SA = system: MES-SA
Outline: as §1

SYO-1 = system: SYO-1
Outline: as §1

SW1353 = system: SW1353
Outline: as §1

SW982 = system: SW982
Outline: as §1

KHOS-240S = system: KHOS-240S
Outline: as §1

C[C@@H](Oc1cc(-c2cnn(C3CCNCC3)c2)cnc1N)c1c(Cl)ccc(F)c1Cl [Crizotinib]
Settings	relative viability
A204, 0.00017 µM	1.07
A204, 0.00051 µM	1.05
A204, 0.00152 µM	1.08
A204, 0.00457 µM	1.08
A204, 0.01372 µM	1.1
A204, 0.04115 µM	1.09
A204, 0.1235 µM	1.08
A204, 0.3704 µM	0.963
A204, 1.111 µM	0.823
A204, 3.333 µM	0.577
A204, 10 µM	0.0123
G401, 0.00017 µM	1.01
G401, 0.00051 µM	0.995
G401, 0.00152 µM	1.01
G401, 0.00457 µM	1.01
G401, 0.01372 µM	1.01
G401, 0.04115 µM	1.01
G401, 0.1235 µM	0.9894
G401, 0.3704 µM	0.915
G401, 1.111 µM	0.745
G401, 3.333 µM	0.417
G401, 10 µM	0.000367
HS729, 0.00017 µM	0.998
HS729, 0.00051 µM	1.01
HS729, 0.00152 µM	0.9714
HS729, 0.00457 µM	0.98
HS729, 0.01372 µM	0.9284
HS729, 0.04115 µM	0.947
HS729, 0.1235 µM	0.922
HS729, 0.3704 µM	0.872
HS729, 1.111 µM	0.744
HS729, 3.333 µM	0.58
HS729, 10 µM	0.0222
KHOS-240S, 0.00017 µM	1.04
KHOS-240S, 0.00051 µM	1.05
KHOS-240S, 0.00152 µM	1.06
KHOS-240S, 0.00457 µM	1.05
KHOS-240S, 0.01372 µM	1.05
KHOS-240S, 0.04115 µM	1.05
KHOS-240S, 0.1235 µM	1.04
KHOS-240S, 0.3704 µM	0.992
KHOS-240S, 1.111 µM	0.771
KHOS-240S, 3.333 µM	0.566
KHOS-240S, 10 µM	0.0657
MES-SA, 0.00017 µM	0.943
MES-SA, 0.00051 µM	0.935
MES-SA, 0.00152 µM	0.943
MES-SA, 0.00457 µM	0.944
MES-SA, 0.01372 µM	0.946
MES-SA, 0.04115 µM	0.969
MES-SA, 0.1235 µM	0.938
MES-SA, 0.3704 µM	0.536
MES-SA, 1.111 µM	0.434
MES-SA, 3.333 µM	0.27
MES-SA, 10 µM	-0.000833
SK-ES-1, 0.00017 µM	1.03
SK-ES-1, 0.00051 µM	1.01
SK-ES-1, 0.00152 µM	1.05
SK-ES-1, 0.00457 µM	1.052
SK-ES-1, 0.01372 µM	1.06
SK-ES-1, 0.04115 µM	1.03
SK-ES-1, 0.1235 µM	0.979
SK-ES-1, 0.3704 µM	0.673
SK-ES-1, 1.111 µM	0.0655
SK-ES-1, 3.333 µM	0.0452
SK-ES-1, 10 µM	0.00363
SK-LMS-1, 0.00017 µM	1.03
SK-LMS-1, 0.00051 µM	1.02
SK-LMS-1, 0.00152 µM	1.01
SK-LMS-1, 0.00457 µM	1.01
SK-LMS-1, 0.01372 µM	0.996
SK-LMS-1, 0.04115 µM	0.921
SK-LMS-1, 0.1235 µM	0.641
SK-LMS-1, 0.3704 µM	0.571
SK-LMS-1, 1.111 µM	0.525
SK-LMS-1, 3.333 µM	0.335
SK-LMS-1, 10 µM	0.0176
SW684, 0.00017 µM	1.16
SW684, 0.00051 µM	1.19
SW684, 0.00152 µM	1.17
SW684, 0.00457 µM	1.23
SW684, 0.01372 µM	1.21
SW684, 0.04115 µM	1.22
SW684, 0.1235 µM	1.17
SW684, 0.3704 µM	1.09
SW684, 1.111 µM	0.976
SW684, 3.333 µM	0.737
SW684, 10 µM	0.0253
SW872, 0.00017 µM	1.06
SW872, 0.00051 µM	1.07
SW872, 0.00152 µM	1.09
SW872, 0.00457 µM	1.06
SW872, 0.01372 µM	1.08
SW872, 0.04115 µM	1.09
SW872, 0.1235 µM	1.014
SW872, 0.3704 µM	0.921
SW872, 1.111 µM	0.644
SW872, 3.333 µM	0.463
SW872, 10 µM	-0.00847
SW982, 0.00017 µM	1.04
SW982, 0.00051 µM	1.03
SW982, 0.00152 µM	1.03
SW982, 0.00457 µM	1.05
SW982, 0.01372 µM	1.03
SW982, 0.04115 µM	1.03
SW982, 0.1235 µM	0.954
SW982, 0.3704 µM	0.628
SW982, 1.111 µM	0.328
SW982, 3.333 µM	0.168
SW982, 10 µM	0.00317
SW1353, 0.00017 µM	1
SW1353, 0.00051 µM	1
SW1353, 0.00152 µM	1.018
SW1353, 0.00457 µM	0.987
SW1353, 0.01372 µM	1.02
SW1353, 0.04115 µM	0.996
SW1353, 0.1235 µM	1.03
SW1353, 0.3704 µM	1.01
SW1353, 1.111 µM	0.999
SW1353, 3.333 µM	0.679
SW1353, 10 µM	0.00907
SYO-1, 0.00017 µM	0.957
SYO-1, 0.00051 µM	0.982
SYO-1, 0.00152 µM	1
SYO-1, 0.00457 µM	0.99
SYO-1, 0.01372 µM	0.973
SYO-1, 0.04115 µM	0.944
SYO-1, 0.1235 µM	0.855
SYO-1, 0.3704 µM	0.655
SYO-1, 1.111 µM	0.346
SYO-1, 3.333 µM	0.13
SYO-1, 10 µM	-0.00763

COc1cc2ncnc(Nc3ccc(F)c(Cl)c3)c2cc1NC(=O)/C=C/CN1CCCCC1 [Dacomitinib]
Settings	relative viability
A204, 0.00017 µM	1.1
A204, 0.00051 µM	1.09
A204, 0.00152 µM	1.09
A204, 0.00457 µM	1.08
A204, 0.01372 µM	1.04
A204, 0.04115 µM	1.07
A204, 0.1235 µM	1.06
A204, 0.3704 µM	0.978
A204, 1.111 µM	0.751
A204, 3.333 µM	0.327
A204, 10 µM	0.0139
G401, 0.00017 µM	1.02
G401, 0.00051 µM	1.01
G401, 0.00152 µM	1.03
G401, 0.00457 µM	1.03
G401, 0.01372 µM	1.01
G401, 0.04115 µM	0.999
G401, 0.1235 µM	1.02
G401, 0.3704 µM	0.997
G401, 1.111 µM	0.849
G401, 3.333 µM	0.548
G401, 10 µM	0.00623
HS729, 0.00017 µM	1.08
HS729, 0.00051 µM	1.04
HS729, 0.00152 µM	1.03
HS729, 0.00457 µM	1.04
HS729, 0.01372 µM	1.01
HS729, 0.04115 µM	0.975
HS729, 0.1235 µM	1
HS729, 0.3704 µM	0.894
HS729, 1.111 µM	0.844
HS729, 3.333 µM	0.737
HS729, 10 µM	0.318
KHOS-240S, 0.00017 µM	1.08
KHOS-240S, 0.00051 µM	1.09
KHOS-240S, 0.00152 µM	1.09
KHOS-240S, 0.00457 µM	1.06
KHOS-240S, 0.01372 µM	1.06
KHOS-240S, 0.04115 µM	1.06
KHOS-240S, 0.1235 µM	1.08
KHOS-240S, 0.3704 µM	1.01
KHOS-240S, 1.111 µM	0.936
KHOS-240S, 3.333 µM	0.579
KHOS-240S, 10 µM	0.0145
MES-SA, 0.00017 µM	0.967
MES-SA, 0.00051 µM	0.942
MES-SA, 0.00152 µM	0.949
MES-SA, 0.00457 µM	0.932
MES-SA, 0.01372 µM	0.926
MES-SA, 0.04115 µM	0.927
MES-SA, 0.1235 µM	0.893
MES-SA, 0.3704 µM	0.879
MES-SA, 1.111 µM	0.731
MES-SA, 3.333 µM	0.342
MES-SA, 10 µM	0.00577
SK-ES-1, 0.00017 µM	1.04
SK-ES-1, 0.00051 µM	1.1
SK-ES-1, 0.00152 µM	1.04
SK-ES-1, 0.00457 µM	1.07
SK-ES-1, 0.01372 µM	1.07
SK-ES-1, 0.04115 µM	1.04
SK-ES-1, 0.1235 µM	1.02
SK-ES-1, 0.3704 µM	1.01
SK-ES-1, 1.111 µM	0.662
SK-ES-1, 3.333 µM	0.184
SK-ES-1, 10 µM	0.00867
SK-LMS-1, 0.00017 µM	1.11
SK-LMS-1, 0.00051 µM	1.11
SK-LMS-1, 0.00152 µM	1.11
SK-LMS-1, 0.00457 µM	1.13
SK-LMS-1, 0.01372 µM	1.09
SK-LMS-1, 0.04115 µM	1.08
SK-LMS-1, 0.1235 µM	1.04
SK-LMS-1, 0.3704 µM	1.03
SK-LMS-1, 1.111 µM	0.916
SK-LMS-1, 3.333 µM	0.701
SK-LMS-1, 10 µM	0.013
SW684, 0.00017 µM	1.22
SW684, 0.00051 µM	1.23
SW684, 0.00152 µM	1.208
SW684, 0.00457 µM	1.18
SW684, 0.01372 µM	1.18
SW684, 0.04115 µM	1.15
SW684, 0.1235 µM	1.22
SW684, 0.3704 µM	1.08
SW684, 1.111 µM	1.01
SW684, 3.333 µM	0.599
SW684, 10 µM	-0.00213
SW872, 0.00017 µM	1.1
SW872, 0.00051 µM	1.12
SW872, 0.00152 µM	1.1
SW872, 0.00457 µM	1.11
SW872, 0.01372 µM	1.11
SW872, 0.04115 µM	1.08
SW872, 0.1235 µM	1.05
SW872, 0.3704 µM	1.03
SW872, 1.111 µM	0.87
SW872, 3.333 µM	0.508
SW872, 10 µM	0.043
SW982, 0.00017 µM	1.05
SW982, 0.00051 µM	1.07
SW982, 0.00152 µM	1.08
SW982, 0.00457 µM	1.09
SW982, 0.01372 µM	1.08
SW982, 0.04115 µM	1.08
SW982, 0.1235 µM	1.04
SW982, 0.3704 µM	0.986
SW982, 1.111 µM	0.606
SW982, 3.333 µM	0.21
SW982, 10 µM	0.0159
SW1353, 0.00017 µM	1.06
SW1353, 0.00051 µM	1.05
SW1353, 0.00152 µM	1.02
SW1353, 0.00457 µM	0.9671
SW1353, 0.01372 µM	0.927
SW1353, 0.04115 µM	0.884
SW1353, 0.1235 µM	0.8331
SW1353, 0.3704 µM	0.764
SW1353, 1.111 µM	0.665
SW1353, 3.333 µM	0.401
SW1353, 10 µM	0.0104
SYO-1, 0.00017 µM	1.02
SYO-1, 0.00051 µM	1.02
SYO-1, 0.00152 µM	1.01
SYO-1, 0.00457 µM	1.02
SYO-1, 0.01372 µM	1
SYO-1, 0.04115 µM	1.01
SYO-1, 0.1235 µM	0.986
SYO-1, 0.3704 µM	0.888
SYO-1, 1.111 µM	0.824
SYO-1, 3.333 µM	0.287
SYO-1, 10 µM	-0.0103

Reference: the supplement of paper PMC10883282
